According to PubChem BioAssay AID248 (DTP/NCI, 2004):
Where “and” joins values, the source holds several entries; their conditions need not be identical. Equal values may be shown once. Inconclusive results and toxic doses are left out. Cut-off read from the data, not from the text of the source: active = T/C of 150% or more; inactive = T/C below 125%.

Tested on: L1210 leukemia ip in BDF1 mice, survival T/C
Experiment: NCI In Vivo Anticancer Drug Screen. Data for tumor model L1210 Leukemia (intraperitoneal) in B6D2F1 (BDF1) mice
Details: endpoint: mean survival time, higher = longer survival
Procedure, shortened: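 Value reflects the ratio of survival in compound-treated mice to survival in vehicle-treated controls, with both groups carrying the same transplanted tumor.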

[1] = dose: 100.0 mg/kg/injection, schedule: Q01DX009 (ip), vehicle: Klucel (hydroxypropylcellulose) (HPC)
[2] = dose: 100.0 mg/kg/injection, schedule: Q04DX003 (ip), vehicle: Klucel (hydroxypropylcellulose) (HPC)
[3] = dose: 200.0 mg/kg/injection, schedule: Q01DX009 (ip), vehicle: Klucel (hydroxypropylcellulose) (HPC)
[4] = dose: 200.0 mg/kg/injection, schedule: Q04DX003 (ip), vehicle: Klucel (hydroxypropylcellulose) (HPC)
[5] = dose: 400.0 mg/kg/injection, schedule: Q04DX003 (ip), vehicle: Klucel (hydroxypropylcellulose) (HPC)
[6] = dose: 100.0 mg/kg/injection, schedule: Q04DX003 (ip), vehicle: saline with Tween-80
[7] = dose: 200.0 mg/kg/injection, schedule: Q04DX003 (ip), vehicle: saline with Tween-80
[8] = dose: 400.0 mg/kg/injection, schedule: Q01DX009 (ip), vehicle: Klucel (hydroxypropylcellulose) (HPC)
[9] = dose: 100.0 mg/kg/injection, schedule: Q01DX001 (ip), vehicle: saline
[10] = dose: 200.0 mg/kg/injection, schedule: Q01DX001 (ip), vehicle: saline
[11] = dose: 400.0 mg/kg/injection, schedule: Q01DX001 (ip), vehicle: saline

Measured: T/C

O=C(NC(=S)Nc1cccc(C(F)(F)F)c1)c1cc([N+](=O)[O-])cc([N+](=O)[O-])c1
inactive: dose: 100.0 mg/kg/injection, schedule: Q01DX001 (ip), vehicle: saline with Tween-80 93 % of control | dose: 100.0 mg/kg/injection, schedule: Q01DX009 (ip), vehicle: saline with Tween-80 89 % of control | dose: 100.0 mg/kg/injection, schedule: Q04DX002 (ip), vehicle: saline with Tween-80 101 % of control | dose: 200.0 mg/kg/injection, schedule: Q01DX001 (ip), vehicle: saline with Tween-80 98 % of control | dose: 200.0 mg/kg/injection, schedule: Q01DX009 (ip), vehicle: saline with Tween-80 87 % of control and 89 % of control | dose: 200.0 mg/kg/injection, schedule: Q04DX002 (ip), vehicle: saline with Tween-80 94 % of control | dose: 400.0 mg/kg/injection, schedule: Q04DX002 (ip), vehicle: saline with Tween-80 97 % of control

O=C(O)COc1ccc(F)cc1Cl
inactive: [1] 93 % of control | [2] 96 % of control | [3] 96 % of control | [4] 98 % of control | [5] 94 % of control

COc1cccc2c(Cl)c(CCl)c(C)nc12
inactive: dose: 12.5 mg/kg/injection, schedule: Q01DX009 (ip), vehicle: saline with Tween-80 97 % of control | dose: 25.0 mg/kg/injection, schedule: Q01DX009 (ip), vehicle: saline with Tween-80 97 % of control | dose: 25.0 mg/kg/injection, schedule: Q04DX003 (ip), vehicle: saline with Tween-80 92 % of control | dose: 50.0 mg/kg/injection, schedule: Q01DX009 (ip), vehicle: saline with Tween-80 92 % of control | dose: 50.0 mg/kg/injection, schedule: Q04DX003 (ip), vehicle: saline with Tween-80 97 % of control | [6] 94 % of control and 96 % of control

COC(=O)COc1ccc(Cl)cc1C(=O)O
inactive: [6] 94 % of control | [7] 92 % of control

CCCCCCCCCCCCC(C)C(=O)O (centres undefined)
inactive: dose: 25.0 mg/kg/injection, schedule: Q04DX002 (ip), vehicle: Klucel (hydroxypropylcellulose) (HPC) 96 % of control | dose: 50.0 mg/kg/injection, schedule: Q04DX002 (ip), vehicle: Klucel (hydroxypropylcellulose) (HPC) 93 % of control | [1] 105 % of control | dose: 100.0 mg/kg/injection, schedule: Q04DX002 (ip), vehicle: Klucel (hydroxypropylcellulose) (HPC) 101 % of control | [3] 91 % of control | dose: 200.0 mg/kg/injection, schedule: Q04DX002 (ip), vehicle: Klucel (hydroxypropylcellulose) (HPC) 98 % of control | [8] 91 % of control | dose: 400.0 mg/kg/injection, schedule: Q04DX002 (ip), vehicle: Klucel (hydroxypropylcellulose) (HPC) 98 % of control

O=C(Nc1cc(C(F)(F)F)cc(C(F)(F)F)c1)Nc1ccccc1C(F)(F)F
inactive: [1] 98 % of control | [3] 102 % of control | [8] 90 % of control

CC(C)(NC(=O)c1ccccc1)C(=O)O
inactive: dose: 50.0 mg/kg/injection, schedule: Q04DX003 (ip), vehicle: Klucel (hydroxypropylcellulose) (HPC) 106 % of control | [2] 96 % of control | [4] 88 % of control

O=C(CCCN1CCC(O)(c2ccc(Cl)cc2)CC1)c1ccc(F)cc1
inactive: dose: 1.25 mg/kg/injection, schedule: Q01DX009 (ip), vehicle: saline 90 % of control | dose: 2.5 mg/kg/injection, schedule: Q01DX009 (ip), vehicle: Klucel (hydroxypropylcellulose) (HPC) 92 % of control | dose: 2.5 mg/kg/injection, schedule: Q01DX009 (ip), vehicle: saline 100 % of control | dose: 2.5 mg/kg/injection, schedule: Q04DX003 (ip), vehicle: saline 114 % of control | dose: 5.0 mg/kg/injection, schedule: Q01DX009 (ip), vehicle: Klucel (hydroxypropylcellulose) (HPC) 95 % of control | dose: 5.0 mg/kg/injection, schedule: Q01DX009 (ip), vehicle: saline 113 % of control | dose: 5.0 mg/kg/injection, schedule: Q04DX003 (ip), vehicle: saline 101 % of control | dose: 10.0 mg/kg/injection, schedule: Q01DX009 (ip), vehicle: Klucel (hydroxypropylcellulose) (HPC) 100 % of control | dose: 10.0 mg/kg/injection, schedule: Q01DX009 (ip), vehicle: saline 121 % of control | dose: 10.0 mg/kg/injection, schedule: Q04DX003 (ip), vehicle: saline 124 % of control | dose: 20.0 mg/kg/injection, schedule: Q01DX009 (ip), vehicle: Klucel (hydroxypropylcellulose) (HPC) 111 % of control | dose: 20.0 mg/kg/injection, schedule: Q01DX009 (ip), vehicle: saline 90 % of control | dose: 20.0 mg/kg/injection, schedule: Q04DX003 (ip), vehicle: saline 101 % of control | dose: 40.0 mg/kg/injection, schedule: Q01DX009 (ip), vehicle: saline 90 % of control | dose: 40.0 mg/kg/injection, schedule: Q04DX003 (ip), vehicle: saline 101 % of control | dose: 80.0 mg/kg/injection, schedule: Q04DX003 (ip), vehicle: Klucel (hydroxypropylcellulose) (HPC) 110 % of control | dose: 160.0 mg/kg/injection, schedule: Q04DX003 (ip), vehicle: Klucel (hydroxypropylcellulose) (HPC) 106 % of control

Cc1cc(N(CCCCl)CCCCl)ccc1C=Nc1cc(Br)c(O)c(Br)c1
inactive: [2] 94 % of control | [4] 95 % of control | [5] 96 % of control

CC(=O)CC(C)=Nc1cccc(N=C(C)CC(C)=O)c1
inactive: dose: 87.5 mg/kg/injection, schedule: Q04DX003 (ip), vehicle: saline with Tween-80 93 % of control | dose: 175.0 mg/kg/injection, schedule: Q04DX003 (ip), vehicle: saline with Tween-80 93 % of control | dose: 350.0 mg/kg/injection, schedule: Q04DX003 (ip), vehicle: saline with Tween-80 93 % of control

CCCCCCCCCC(=O)N/N=C/c1ccco1
inactive: [1] 87 % of control | [3] 99 % of control

CCc1ccc(C)[n+](C)c1
inactive: dose: 75.0 mg/kg/injection, schedule: Q01DX001 (ip), vehicle: saline 96 % of control | dose: 150.0 mg/kg/injection, schedule: Q01DX001 (ip), vehicle: saline 95 % of control

[C](#[C][Sn]([c]1ccccc1)([c]1ccccc1)[c]1ccccc1)[Sn]([c]1ccccc1)([c]1ccccc1)[c]1ccccc1
inactive: [2] 94 % of control | dose: 200.0 mg/kg/injection, schedule: Q04DX002 (ip), vehicle: saline 92 % of control | [4] 95 % of control | dose: 400.0 mg/kg/injection, schedule: Q04DX002 (ip), vehicle: saline 92 % of control | [5] 111 % of control

O=c1ccn(Cc2ccccc2)c(=S)[nH]1
inactive: dose: 50.0 mg/kg/injection, schedule: Q01DX001 (ip), vehicle: saline 97 % of control | [9] 94 % of control | [10] 97 % of control | [11] 100 % of control

Cc1cc([N+](C)(C)C)cc(C)c1C#[N+][O-]
inactive: dose: 1.25 mg/kg/injection, schedule: Q01DX001 (ip), vehicle: saline 104 % of control | dose: 2.5 mg/kg/injection, schedule: Q01DX001 (ip), vehicle: saline 93 % of control | dose: 5.0 mg/kg/injection, schedule: Q01DX001 (ip), vehicle: saline 102 % of control | dose: 10.0 mg/kg/injection, schedule: Q01DX001 (ip), vehicle: saline 102 % of control

O=c1c2ccccc2[nH]c(=S)n1-c1ccc(Cl)cc1
inactive: [1] 100 % of control | [6] 100 % of control | [3] 111 % of control | [7] 100 % of control | [8] 97 % of control | dose: 400.0 mg/kg/injection, schedule: Q04DX003 (ip), vehicle: saline with Tween-80 97 % of control

CN1CCC(C=C2c3ccccc3CCc3ccccc32)C1 (centres undefined)
inactive: dose: 3.12 mg/kg/injection, schedule: Q01DX009 (ip), vehicle: saline 100 % of control | dose: 6.25 mg/kg/injection, schedule: Q01DX009 (ip), vehicle: saline 92 % of control | dose: 12.5 mg/kg/injection, schedule: Q01DX009 (ip), vehicle: saline 100 % of control | dose: 25.0 mg/kg/injection, schedule: Q01DX009 (ip), vehicle: saline 98 % of control

Oc1[nH]c(=S)sc1/C=C1\C=Nc2ccccc21
inactive: dose: 50.0 mg/kg/injection, schedule: Q01DX001 (ip), vehicle: carboxymethylcellulose (CMC) 90 % of control | dose: 100.0 mg/kg/injection, schedule: Q01DX001 (ip), vehicle: carboxymethylcellulose (CMC) 92 % of control | dose: 200.0 mg/kg/injection, schedule: Q01DX001 (ip), vehicle: carboxymethylcellulose (CMC) 90 % of control | dose: 400.0 mg/kg/injection, schedule: Q01DX001 (ip), vehicle: carboxymethylcellulose (CMC) 90 % of control

NC(=S)N/N=C/C(=O)O
inactive: [9] 91 % of control | [10] 89 % of control | [11] 89 % of control

CCOC(=O)c1ccc(N=Cc2cccc([N+](=O)[O-])c2)cc1
inactive: [2] 89 % of control | [4] 88 % of control | [5] 96 % of control
